Laboratory results taken from the NIST ThermoML archive (doi:10.1016/j.tca.2013.09.034).
Numbers after ± are expanded uncertainties.

Experiment: mn = molality of the nth substance listed, in mol/kg
Settings: 101 kPa, Liquid; for speed of sound: Sing-around technique in a fixed-path interferometer; for mass density: Vibrating tube method

CCCCn1cc[n+](C)c1C.[Cl-] [1-butyl-2,3-dimethylimidazolium chloride] + O
speed of sound (288.15 K, m1 = 0.0354): 1471.7 ± 1.4 m/s | speed of sound (288.15 K, m1 = 0.0466): 1480.1 ± 1.4 m/s | speed of sound (288.15 K, m1 = 0.0575): 1484.9 ± 1.4 m/s | speed of sound (288.15 K, m1 = 0.0702): 1489.8 ± 1.4 m/s | speed of sound (288.15 K, m1 = 0.0932): 1498 ± 1.4 m/s | speed of sound (288.15 K, m1 = 0.1164): 1502.9 ± 1.4 m/s | speed of sound (288.15 K, m1 = 0.1401): 1505.3 ± 1.4 m/s | speed of sound (288.15 K, m1 = 0.1635): 1506.4 ± 1.4 m/s | speed of sound (288.15 K, m1 = 0.1862): 1507.5 ± 1.4 m/s | speed of sound (288.15 K, m1 = 0.2082): 1508.2 ± 1.4 m/s | speed of sound (288.15 K, m1 = 0.2329): 1509.1 ± 1.4 m/s | mass density (288.15 K, m1 = 0.0354): 999.41 ± 0.29 kg/m3 | mass density (288.15 K, m1 = 0.0466): 999.559 ± 0.29 kg/m3 | mass density (288.15 K, m1 = 0.0575): 999.712 ± 0.3 kg/m3 | mass density (288.15 K, m1 = 0.0702): 999.936 ± 0.3 kg/m3 | mass density (288.15 K, m1 = 0.0932): 1000.31 ± 0.3 kg/m3 | mass density (288.15 K, m1 = 0.1164): 1000.68 ± 0.3 kg/m3 | mass density (288.15 K, m1 = 0.1401): 1000.99 ± 0.3 kg/m3 | mass density (288.15 K, m1 = 0.1635): 1001.1 ± 0.3 kg/m3 | mass density (288.15 K, m1 = 0.1862): 1001.01 ± 0.3 kg/m3 | mass density (288.15 K, m1 = 0.2082): 1000.78 ± 0.3 kg/m3 | mass density (288.15 K, m1 = 0.2329): 1000.25 ± 0.3 kg/m3 | speed of sound (298.15 K, m1 = 0.0354): 1502.4 ± 1.4 m/s | speed of sound (298.15 K, m1 = 0.0466): 1508.2 ± 1.4 m/s | speed of sound (298.15 K, m1 = 0.0575): 1512.1 ± 1.4 m/s | speed of sound (298.15 K, m1 = 0.0702): 1515.5 ± 1.4 m/s | speed of sound (298.15 K, m1 = 0.0932): 1520.7 ± 1.4 m/s | speed of sound (298.15 K, m1 = 0.1164): 1525.7 ± 1.4 m/s | speed of sound (298.15 K, m1 = 0.1401): 1527.9 ± 1.4 m/s | speed of sound (298.15 K, m1 = 0.1635): 1529.3 ± 1.4 m/s | speed of sound (298.15 K, m1 = 0.1862): 1530.5 ± 1.4 m/s | speed of sound (298.15 K, m1 = 0.2082): 1531.5 ± 1.4 m/s | speed of sound (298.15 K, m1 = 0.2329): 1532.1 ± 1.4 m/s | mass density (298.15 K, m1 = 0.0354): 997.296 ± 0.3 kg/m3 | mass density (298.15 K, m1 = 0.0466): 997.434 ± 0.29 kg/m3 | mass density (298.15 K, m1 = 0.0575): 997.614 ± 0.3 kg/m3 | mass density (298.15 K, m1 = 0.0702): 997.784 ± 0.3 kg/m3 | mass density (298.15 K, m1 = 0.0932): 998.103 ± 0.29 kg/m3 | mass density (298.15 K, m1 = 0.1164): 998.419 ± 0.29 kg/m3 | mass density (298.15 K, m1 = 0.1401): 998.698 ± 0.29 kg/m3 | mass density (298.15 K, m1 = 0.1635): 998.836 ± 0.29 kg/m3 | mass density (298.15 K, m1 = 0.1862): 998.743 ± 0.29 kg/m3 | mass density (298.15 K, m1 = 0.2082): 998.556 ± 0.29 kg/m3 | mass density (298.15 K, m1 = 0.2329): 998.134 ± 0.3 kg/m3 | speed of sound (308.15 K, m1 = 0.0354): 1525.2 ± 1.4 m/s | speed of sound (308.15 K, m1 = 0.0466): 1530.4 ± 1.4 m/s | speed of sound (308.15 K, m1 = 0.0575): 1533 ± 1.4 m/s | speed of sound (308.15 K, m1 = 0.0702): 1535.5 ± 1.4 m/s | speed of sound (308.15 K, m1 = 0.0932): 1539.2 ± 1.4 m/s | speed of sound (308.15 K, m1 = 0.1164): 1543.5 ± 1.4 m/s | speed of sound (308.15 K, m1 = 0.1401): 1546.4 ± 1.4 m/s | speed of sound (308.15 K, m1 = 0.1635): 1547.4 ± 1.4 m/s | speed of sound (308.15 K, m1 = 0.1862): 1549.1 ± 1.4 m/s | speed of sound (308.15 K, m1 = 0.2082): 1550 ± 1.4 m/s | speed of sound (308.15 K, m1 = 0.2329): 1550.6 ± 1.4 m/s | mass density (308.15 K, m1 = 0.0354): 994.233 ± 0.29 kg/m3 | mass density (308.15 K, m1 = 0.0466): 994.36 ± 0.29 kg/m3 | mass density (308.15 K, m1 = 0.0575): 994.516 ± 0.29 kg/m3 | mass density (308.15 K, m1 = 0.0702): 994.679 ± 0.29 kg/m3 | mass density (308.15 K, m1 = 0.0932): 994.956 ± 0.29 kg/m3 | mass density (308.15 K, m1 = 0.1164): 995.243 ± 0.29 kg/m3 | mass density (308.15 K, m1 = 0.1401): 995.547 ± 0.29 kg/m3 | mass density (308.15 K, m1 = 0.1635): 995.675 ± 0.29 kg/m3 | mass density (308.15 K, m1 = 0.1862): 995.587 ± 0.29 kg/m3 | mass density (308.15 K, m1 = 0.2082): 995.17 ± 0.3 kg/m3 | mass density (308.15 K, m1 = 0.2329): 994.487 ± 0.3 kg/m3
